Patent publication US20120208873A1, “TEA POLYPHENOLS PRODUCTS FOR CEASING SMOKING AND TREATING AND/OR PREVENTING NICOTINE OR NICOTINE-DERIVED COMPOUNDS OR ESTROGEN INDUCED BREAST CANCER” (priority 2011, published 2012)
“Also recorded” adds a separate entry of the source.

What was measured:
α9-nAChR protein = α9-nAChR protein levels by immunoblotting in MCF-7 cells; format: cell-based, human; conditions: MCF-7
Procedure: (§1) Human mammary gland epithelial adenocarcinomas (MCF7, MDA-MB-231, AU-565, MDA-MB-453, and BT-483) and normal human mammary gland epithelial fibrocystic cell lines (MCF-10A and HBL-100) were purchased from ATCC (American Type Culture Collection, Manassas, Va., USA). MCF-7, MDA-MB-231, and MDA-MB-453 cells were maintained in DMEM, whereas BT-483 cells were maintained in RPMI-1640. Cell growth, proliferation, and viability were determined by the 3-(4,5-dimethylthiazol-2-yl)-2,5-diphenyltetrazolium (MTT) assay. The formazan product was measured by absorbance at 540 nm.
(§2) To prepare protein samples, cells were washed once with ice-cold PBS and lysed on ice in cell lysis buffer (50 mM Tris-HCl, pH 8.0, 120 mM […], 0.5% Nonidet P-40, 100 mM sodium fluoride, and 200 μM sodium orthovanadate) containing protease inhibitors as described previously (Shih, Y. L., Liu, H. C., Chen, C. S., Hsu, C. H. et al., J. Agric. Food Chem. 2010, 58, 235-241). Protein (50 μg) from each sample was resolved by 12% SDS-polyacrylamide gel electrophoresis, transferred, and analyzed by Western blotting. Antibodies were purchased from the following vendors: anti-total AKT and protein A/G agarose beads were obtained from Santa Cruz Biotechnology (Santa Cruz, Calif., USA); anti-GAPDH and anti-α9-nAChR antibodies were from Abcam (Cambridge, UK); antiphospho AKT (Ser^473), anti-c-Jun, and anti-c-Fos were from Cell Signaling Technology (Beverly, Mass., USA). The secondary antibodies, alkaline phosphatase-coupled anti-mouse, and anti-rabbit IgG were purchased from Santa Cruz Biotechnology. The specific protein complexes were identified with the chromogenic substrates nitro blue tetrazolium, and 5-bromo-4-chloro-3-indolyl-phosphate from KPL (Gaithersburg, Md., USA). In each experiment, proteins were also probed with anti-GAPDH antibodies as a protein-loading control.

α9-nAChR mRNA = α9-nAChR mRNA by RT-PCR / real-time PCR in MCF-7 cells; format: cell-based, human; conditions: 24 h
Procedure: Total RNA was isolated from human cell lines using TRIzol (Invitrogen, Carlsbad, Calif., USA) according to the manufacturer's protocol. The α9-nAChR subunit-specific primers were synthesized by MB Mission BioTech (Taipei, Taiwan) as described in the previous reports (Chen, C. S., Lee, C. H., Hsieh, C. D., Ho, C. T. et al., Breast Cancer Res. Treat. 2010; Shih, Y. L., Liu, H. C., Chen, C. S., Hsu, C. H. et al., J. Agric. Food Chem. 2010, 58, 235-241). The PCR amplicons were analyzed on 1.2% agarose gels (Amresco, Solon, Ohio, USA) stained with ethidium bromide. The α9-nAChR mRNA intensity was measured and normalized to β-glucuronidase expression. Pictures of the bands were taken using an INFINITY-α digital imaging system (Vilber Lourmat, France), and band intensities were determined using PhotoCapt Version 11.01 software.

p-AKT (Ser^473) = assay: phosphorylated AKT by immunoblotting in MCF-7 cells; format: cell-based, human; conditions: EGCG 10 μM 24 h pretreatment, then Nic 10 μM or E2 10 nM 24 h
Procedure: as §2

p53 = assay: ChIP assay of p53 binding to the α9-nAChR promoter in MCF-7 cells; format: cell-based, human; conditions: EGCG 10 μM pretreatment, Nic 10 μM
MCF-7 cells = assay: Cell proliferation (MTT assay) in MCF-7 cells; format: cell-based, human
Procedure: as §1

MCF-10A cells = assay: Cell proliferation (MTT assay) in normal MCF-10A cells; format: cell-based, human; conditions: Nic 10 μM or EGCG 10-25 μM
Procedure: as §1

α9-nAChR = molecular target: T1, α9-nAChR (Homo sapiens, UniProt Q9UGM1); assay: [^3H]-Nic equilibrium binding in MCF-7 cells
T1 construct: breast cancer cell proliferation induced by Nic could be mediated through endogenous α9-nAChR; endogenous in cells; host or cells: MCF-7 cell monolayers: wild type, scramble control (Sc) and α9-nAChR siRNA knockdown (Si) clones
T1 sequence (Q9UGM1 26-479 limits assumed): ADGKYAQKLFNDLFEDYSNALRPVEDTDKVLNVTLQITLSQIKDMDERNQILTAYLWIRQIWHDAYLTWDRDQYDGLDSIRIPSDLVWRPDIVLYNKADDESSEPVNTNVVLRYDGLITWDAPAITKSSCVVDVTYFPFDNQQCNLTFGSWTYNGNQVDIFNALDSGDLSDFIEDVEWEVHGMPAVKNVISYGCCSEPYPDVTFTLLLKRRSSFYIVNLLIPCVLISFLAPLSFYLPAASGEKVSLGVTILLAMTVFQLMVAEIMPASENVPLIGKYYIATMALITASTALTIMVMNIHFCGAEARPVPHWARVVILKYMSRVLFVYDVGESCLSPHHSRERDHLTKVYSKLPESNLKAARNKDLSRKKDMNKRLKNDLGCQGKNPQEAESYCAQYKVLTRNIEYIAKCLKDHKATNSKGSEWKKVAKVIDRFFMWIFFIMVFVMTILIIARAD
Procedure: L-(−)-[N-methyl-^3H]-Nic ([^3[H]-Nic) (71-75 Ci/mmol) was purchased from Dupont/NEN Research Products (Boston, Mass., USA), and free-base Nic (99% pure) was purchased from The Eastman Kodak (Rochester, N.Y., USA). To study the uptake of [^3H]-Nic in MCF-7 cell monolayers (2×10^6 cells/well), cells were rinsed three times with a buffer containing 140 mM NaCl, 5.4 mM KCl, 1.8 mM CaCl2, 0.8 mM Mg504, 5 mM glucose, and 25 mM Hepes/Tris (pH 7.4). […] Nonspecific binding was determined by the addition of […] Nic. Total binding was evaluated for each concentration in quintuplicate, and blanks were determined in triplicate. The uptake of [^3H]-Nic was halted by aspiration of the uptake medium and washing of the wells three times with ice-cold buffer. The cells were lysed in 1 mL of 0.5% Triton X-100, and aliquots of the cell lysates were transferred to scintillation vials to determine the incorporated radioactivity by scintillation counting. Inhibition studies were carried out by adding various concentrations of unlabeled compounds to the uptake medium.

Structure (SMILES): O=C(O[C@@H]1Cc2c(O)cc(O)cc2O[C@@H]1c1cc(O)c(O)c(O)c1)c1cc(O)c(O)c(O)c1 [EGCG, (−)-epigallocatechin-3-gallate]
- Nic- and E2-induced upregulation of α9-nAChR protein after inhibitor pretreatment (α9-nAChR protein; 24 h pretreatment (LY294002 25 μM or EGCG 10 μM), then Nic 10 μM or E2 10 nM 24 h): almost completely inhibited; also recorded: significantly inhibited
- α9-nAChR protein in Nic-treated cells (α9-nAChR protein; EGCG 1 μM with Nic 10 μM, 24 h): downregulated
- α9-nAChR protein expression induced by either Nic or E2 (α9-nAChR protein; Nic 10 μM or E2 10 nM in presence of EGCG 1-10 μM, 24 h): significantly inhibited
- α9-nAChR mRNA in Nic-treated cells (α9-nAChR mRNA; EGCG 1 μM with Nic 10 μM, RT-PCR): downregulated
- Nic- or E2-induced α9-nAChR mRNA upregulation (real-time PCR) (α9-nAChR mRNA; EGCG 10 μM, Nic 10 μM or E2 10 nM): completely attenuated
- pAKT protein expression induced by either E2 or Nic (p-AKT (Ser^473)): significantly inhibited
- p53 binding to the α9-nAChR promoter (−125 to 0) (p53): not affected
- Nic-induced cellular proliferation effects in (C) and (Sc) cells (MCF-7 cells; EGCG 10 μM, 24 h pretreatment, then Nic 10 μM 24 h): reversed
- Nic-stimulated proliferation (MCF-7 cells; MCF-7, EGCG 10-25 μM, 24 h pretreatment, dose-dependent): blocked
- cell proliferation in Nic-treated α9-nAChR (Si) cells compared with Sc cells (MCF-7 cells; combined treatment with EGCG 10 μM and Nic 10 μM): profoundly inhibited
- cell number in normal breast epithelial cells (MCF-10A cells): no changes
- [^3H]-Nic binding activity in α9-nAChR (Si) cells compared with Sc or wild-type cells (α9-nAChR; EGCG 10 μM 24 h pretreatment): profoundly inhibited
- inhibition of [^3H]-Nic binding activity in (Si) cells compared with Sc or wild-type cells (α9-nAChR; EGCG pretreatment): > 90%
- [^3H]-Nic binding activity, EGCG pretreated then washed group (α9-nAChR; MCF-7, EGCG 24 h, wash, then [^3H]-Nic 24 h): not significantly inhibited
- [^3H]-Nic binding activity, EGCG cotreated group (α9-nAChR; MCF-7, [^3H]-Nic + EGCG cotreatment 24 h): not significantly inhibited
- relative [^3H]-Nic binding activity, EGCG pretreated group (α9-nAChR; wild-type MCF-7, EGCG 10 μM 24 h, then [^3H]-Nic cotreatment 24 h): significantly blocked; also recorded: profoundly inhibited
